Columns and labels:
Caco-2 cells = experiment: Caco-2 permeability assay; type: in vitro ADME, human
Experimental: (§1) Permeability (Caco-2 assay): Caco 2 cells were used as an in vitro model of the human intestinal epithelium and to permit assessment of the intestinal permeability of potential drugs. Test compound was added to either the apical or basolateral side of a confluent monolayer of Caco 2 cells and permeability was measured by monitoring the appearance of the test compound on the opposite side of the monolayer using LC-MS/MS. When performing a bi-directional assay, the efflux ratio (ER) was calculated from the ratio of B-A and A-B permeabilities.
(§2) Briefly, Caco 2 cells obtained (ATCC) were used between passage numbers 40 and 60. Cells were seeded on to Transwell plates at 1×10^5 cells/cm^2. The cells were cultured in DMEM and media was changed every two or three days. On day 20, the permeability study was performed. […]
(§3) Test and control compounds were quantified by LC-MS/MS cassette analysis using a 7-point calibration with appropriate dilution of the samples. […] The starting concentration (C0) was determined from the dosing solution and the experimental recovery was calculated from C0 and both apical and basolateral compartment concentrations.
(§4) Data Analysis: The permeability coefficient (Papp) for each compound was calculated from the following equation: […]
(§5) For bi directional experiments, an efflux ratio (ER) was calculated from mean A-B and B-A data using the following equation: […]

[1] = Caco-2 permeability assay; type: in vitro ADME, human; details: human, Papp(B-A)/Papp(A-B), 120 min
Experimental: as §1, §2, §3, §4, §5

HFD-fed mice = experiment: High-fat diet-induced obesity and type 2 diabetes model; type: in vivo, mouse; details: 30 mg/kg IP daily, 7 weeks
Excerpt: Animals: All animals were housed and tested following European (Directive on the Protection of Animals used for Scientific Purposes, 2010/63/EU) and UK Home Office regulations. Experiments were approved by the University Ethics Board and carried out in accordance with the Animal (Scientific Procedures) Act 1986 and following ARRIVE guidelines. C57BL/6 male mice (~3-4 months) were purchased from Charles River, UK. All mice received high fat and cholesterol diet (42% fat plus 0.2% cholesterol, #TD.88137, Envigo, US) to induce experimental type 2 diabetes and obesity phenotype. All mice had ad libitum access to food and water and were kept in a 12 h light/dark cycle.
Briefly, after 8 weeks of high fat/high cholesterol diet feeding, mice were counterbalanced according to their body weight in to control (n=10) or MD20 30 mg/kg (n=10) groups. MD20 compound (30 mg/kg) was administered once daily via intraperitoneal (IP) injection for 7 weeks, whereas control mice received daily IP injection of vehicle (PBS). MD20 was kept at −20 °C and dissolved in sterile phosphate buffered saline (PBS) freshly every day before the injection. Three mice died during the study, and the final number of animals was: control (n=9) and MD20 30 mg/kg (n=8).
Bodyweights and body mass composition: Bodyweights were recorded during the study. Fat mass and lean mass composition were analysed using an EchoMRI scanner (EchoMedical Systems, Houston, TX, U.S.A.).
Metabolic measurements: All animals were 5 h-fasted before metabolic testing. Tail blood glucose was measured using AlphaTRAK 2 glucose strips and glucometer (Abbot, UK). Glucose tolerance tests (GTT) and insulin tolerance tests (ITT) were performed by IP injection of 2 mg/g of glucose (GTT) or 0.6 mU/g insulin (ITT), and glucose levels were measured at 15, 30, 60 and 90 min post-injection.
Serum and liver assays: Trunk-derived blood was collected from 5 h-fasted mice into serum separator microtubes and kept at −80 °C. Serum was used for insulin (#EZRMI-13K, Merck), leptin (#90030, Crystal Chem), free fatty acids (FFA; #mak044, Sigma-Aldrich), cholesterol (#MAK043, Sigma Aldrich), alanine, and aspartate aminotransferase (ALT and AST; ab105134 and ab105135, Abcam) analyses. Serum and liver triglycerides were determined using triglyceride reagents (#T2449, #F6428, #G7793, Sigma Aldrich).
Statistical analyses: Data were reported as means±SEM and analysed using one- or two-way ANOVA with Bonferroni post hoc tests, as appropriate. GraphPad Prism (V8, GraphPad Software, Inc., San Diego, California, USA) was used for statistical analyses. P-values <0.05 were considered significant.

Ac-PRPPKR-NH2 [MD20, Ac-PRPPKR-NH2]
permeation of cells relative to antihypertensive drugs (Caco-2 cells): able to permeate the cells at the same rate as some antihypertensive drugs (e.g., nicardipine) | efflux ratio at 2 h [1]: 0.252 | fasted basal glucose levels (HFD-fed mice): No significant differences | fasted serum cholesterol (HFD-fed mice): No significant differences | fasted serum free fatty acids (HFD-fed mice): No significant differences | fasted serum insulin (HFD-fed mice): No significant differences | fasted serum leptin (HFD-fed mice): No significant differences | hepatic toxicity (HFD-fed mice): most likely did not induce hepatic toxicity | liver triglycerides (HFD-fed mice): No significant differences | serum ALT (HFD-fed mice): No significant differences | serum AST (HFD-fed mice): No significant differences | serum triglycerides (HFD-fed mice): No significant differences | body weight gain (HFD-fed mice; vs control): inhibited body weight gain | fat mass gain (HFD-fed mice; vs control): inhibited fat mass gain | glucose tolerance test (GTT) (HFD-fed mice; 2 mg/g glucose): No significant differences | insulin sensitivity during ITT (HFD-fed mice; 0.6 mU/g insulin): improved insulin sensitivity during ITT
